Consider 13 compounds from patent US20240261297A1, “ANTI-CDK INHIBITORS FOR CANCER TREATMENT” (St. John's Cancer Institute, priority 2021, published 2024).

Read-outs that look alike come from different tables or passages of the source.

Series [1] in a line: Snapshot plasma pharmacokinetics in mice. The class given is in vivo. As to the method:
Evaluation of pharmacokinetic (PK) parameters and efficacy of I-3 in a xenograft model was carried out in mice. […] Briefly, mice were treated with 5 mg/kg of 1-3 or merioline-3. Plasma was then collected at different time points and measured for drug concentration. […] PK parameters of I-3 was also compared to a panel of CDK inhibitors (Table 13). […] Likewise, Ribociclib has a better Cmax than I-3, but it is primarily a CDK4/6 inhibitor.

Series [2] deals with CDK1/cyclin B (Homo sapiens, UniProt P06493). In words: Radioisotope-based protein kinase assay. The class given is biochemical. As to conditions: 10 μM ATP, 3-fold dilution from 10 μM. As to the method: (§1) A series of test compounds were selected for initial screening against CDK isoforms. Protein kinase assays were performed with gold standard radioisotope-based assay formats to measuring enzyme activity remaining in presence and absence of inhibitor.
Sequence of CDK1/cyclin B (P06493 whole entry, canonical isoform): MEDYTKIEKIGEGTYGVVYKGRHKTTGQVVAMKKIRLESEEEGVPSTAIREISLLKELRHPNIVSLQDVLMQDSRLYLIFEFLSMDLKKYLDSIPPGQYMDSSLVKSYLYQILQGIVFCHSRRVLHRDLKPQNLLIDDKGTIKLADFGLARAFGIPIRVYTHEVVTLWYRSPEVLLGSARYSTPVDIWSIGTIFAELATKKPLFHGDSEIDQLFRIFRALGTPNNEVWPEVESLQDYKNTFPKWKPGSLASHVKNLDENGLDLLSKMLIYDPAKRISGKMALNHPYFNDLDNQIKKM
Sequence of CDK1/cyclin B (P14635 whole entry partner, canonical isoform): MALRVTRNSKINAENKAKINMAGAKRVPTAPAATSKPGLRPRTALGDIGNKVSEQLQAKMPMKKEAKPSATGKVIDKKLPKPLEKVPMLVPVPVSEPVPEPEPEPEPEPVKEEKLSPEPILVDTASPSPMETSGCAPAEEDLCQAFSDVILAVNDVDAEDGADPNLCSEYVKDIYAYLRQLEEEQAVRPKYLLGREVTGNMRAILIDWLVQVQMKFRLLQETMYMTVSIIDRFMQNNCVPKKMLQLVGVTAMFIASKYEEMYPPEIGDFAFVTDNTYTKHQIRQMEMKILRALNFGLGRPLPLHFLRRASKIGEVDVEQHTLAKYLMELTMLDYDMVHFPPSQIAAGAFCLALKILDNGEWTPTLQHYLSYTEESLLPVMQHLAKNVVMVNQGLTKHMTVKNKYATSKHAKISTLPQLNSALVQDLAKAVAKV

Series [3] has as its target CDK2/cyclin E (Homo sapiens, UniProt P24941). In words: Radioisotope-based protein kinase assay. The conditions noted are these: 10 μM ATP, 3-fold dilution from 10 μM. The class given is biochemical. As to the method:
as §1

Series [4] concerns the target CDK4/cyclin D1 (Homo sapiens, UniProt P11802). In words: Radioisotope-based protein kinase assay. The class given is biochemical. The conditions noted are these: 10 μM ATP, 3-fold dilution from 10 μM. As to the method:
as §1

For series [5], the system named is MDA-MB-468. In words: Cell viability in breast cancer cell lines. The class given is cell-based. As to conditions: MDA-MB-468, 72 hours, Table 6, read-out: Cell viability by CellTiter Glo IC50. The text has this: (§2) Tables 5 and 6 show assessment of in vitro efficacy of I-3 in a panel of breast cancer cell lines.
Background: ATP-based viability assays read luminescence as a measure of living cells.

Series [6] relates to MCF-10A. In words: Cell viability in breast cell lines. In kind it is cell-based. As to conditions: MCF-10A, 72 hours, Table 6, read-out: Cell viability by CellTiter Glo IC50.
Text: as §2

Series [7] addresses CDK1/cyclin A (Homo sapiens, UniProt P06493). In words: Radioisotope-based protein kinase assay. In kind it is biochemical. The conditions noted are these: 10 μM ATP, 3-fold dilution from 10 μM. As to the method: as §1
For series [8], the target named is CDK2/cyclin A (Homo sapiens, UniProt P24941). In words: Radioisotope-based protein kinase assay. The class given is biochemical. As to conditions: 10 μM ATP, 3-fold dilution from 10 μM. On the procedure:
as §1

Series [9] concerns the target CDK6/cyclin D1 (Homo sapiens, UniProt Q00534). In words: Radioisotope-based protein kinase assay. In kind it is biochemical. The conditions noted are these: 10 μM ATP, 3-fold dilution from 10 μM. On the procedure: as §1
The target of series [10] is CDK7/cyclin H (Homo sapiens, UniProt P50613). In words: Radioisotope-based protein kinase assay. The class given is biochemical. The conditions noted are these: 10 μM ATP, 3-fold dilution from 10 μM. As to the method: as §1
Sequence of CDK7/cyclin H (P50613 whole entry): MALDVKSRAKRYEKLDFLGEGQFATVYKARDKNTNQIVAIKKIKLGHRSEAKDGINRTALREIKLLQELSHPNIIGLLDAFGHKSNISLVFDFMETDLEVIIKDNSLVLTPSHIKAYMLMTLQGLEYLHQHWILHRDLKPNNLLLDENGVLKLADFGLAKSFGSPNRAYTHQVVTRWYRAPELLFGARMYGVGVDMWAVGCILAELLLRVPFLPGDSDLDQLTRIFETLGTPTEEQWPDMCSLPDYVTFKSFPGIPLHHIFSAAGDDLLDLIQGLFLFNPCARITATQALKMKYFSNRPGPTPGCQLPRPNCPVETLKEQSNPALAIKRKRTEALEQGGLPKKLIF
Sequence of CDK7/cyclin H (P51946 whole entry partner): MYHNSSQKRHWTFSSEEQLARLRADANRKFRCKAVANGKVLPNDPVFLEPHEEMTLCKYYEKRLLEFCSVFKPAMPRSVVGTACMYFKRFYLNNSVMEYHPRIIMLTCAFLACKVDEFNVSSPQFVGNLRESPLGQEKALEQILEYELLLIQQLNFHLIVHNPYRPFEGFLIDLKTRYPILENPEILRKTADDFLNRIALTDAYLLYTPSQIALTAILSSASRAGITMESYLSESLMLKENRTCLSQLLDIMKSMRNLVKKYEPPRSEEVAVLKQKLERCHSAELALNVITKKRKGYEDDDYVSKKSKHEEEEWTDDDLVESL
Sequence of CDK7/cyclin H (P51948 whole entry partner): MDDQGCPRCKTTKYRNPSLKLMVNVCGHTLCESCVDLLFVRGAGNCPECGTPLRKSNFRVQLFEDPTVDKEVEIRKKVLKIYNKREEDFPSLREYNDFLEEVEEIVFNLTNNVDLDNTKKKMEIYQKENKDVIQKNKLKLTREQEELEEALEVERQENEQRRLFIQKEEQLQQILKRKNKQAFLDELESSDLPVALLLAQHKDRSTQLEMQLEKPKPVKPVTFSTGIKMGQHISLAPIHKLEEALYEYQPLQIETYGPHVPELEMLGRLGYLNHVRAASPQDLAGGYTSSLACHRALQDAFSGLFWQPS
Series [11] deals with CDK9/cyclin T1 (Homo sapiens, UniProt P50750). In words: Radioisotope-based protein kinase assay. The conditions noted are these: 10 μM ATP, 3-fold dilution from 10 μM. The class given is biochemical. As to the method: as §1
Sequence of CDK9/cyclin T1 (P50750 whole entry): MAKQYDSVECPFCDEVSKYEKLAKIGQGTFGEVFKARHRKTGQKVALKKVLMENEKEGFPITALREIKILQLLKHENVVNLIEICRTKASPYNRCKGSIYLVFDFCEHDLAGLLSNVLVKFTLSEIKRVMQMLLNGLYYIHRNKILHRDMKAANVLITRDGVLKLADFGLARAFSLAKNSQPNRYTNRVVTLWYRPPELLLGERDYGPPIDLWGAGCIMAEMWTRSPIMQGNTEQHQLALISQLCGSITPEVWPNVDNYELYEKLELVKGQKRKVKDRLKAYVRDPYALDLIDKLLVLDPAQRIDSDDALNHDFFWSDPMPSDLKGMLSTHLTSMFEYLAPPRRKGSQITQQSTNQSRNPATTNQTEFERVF
Sequence of CDK9/cyclin T1 (O60563 whole entry partner): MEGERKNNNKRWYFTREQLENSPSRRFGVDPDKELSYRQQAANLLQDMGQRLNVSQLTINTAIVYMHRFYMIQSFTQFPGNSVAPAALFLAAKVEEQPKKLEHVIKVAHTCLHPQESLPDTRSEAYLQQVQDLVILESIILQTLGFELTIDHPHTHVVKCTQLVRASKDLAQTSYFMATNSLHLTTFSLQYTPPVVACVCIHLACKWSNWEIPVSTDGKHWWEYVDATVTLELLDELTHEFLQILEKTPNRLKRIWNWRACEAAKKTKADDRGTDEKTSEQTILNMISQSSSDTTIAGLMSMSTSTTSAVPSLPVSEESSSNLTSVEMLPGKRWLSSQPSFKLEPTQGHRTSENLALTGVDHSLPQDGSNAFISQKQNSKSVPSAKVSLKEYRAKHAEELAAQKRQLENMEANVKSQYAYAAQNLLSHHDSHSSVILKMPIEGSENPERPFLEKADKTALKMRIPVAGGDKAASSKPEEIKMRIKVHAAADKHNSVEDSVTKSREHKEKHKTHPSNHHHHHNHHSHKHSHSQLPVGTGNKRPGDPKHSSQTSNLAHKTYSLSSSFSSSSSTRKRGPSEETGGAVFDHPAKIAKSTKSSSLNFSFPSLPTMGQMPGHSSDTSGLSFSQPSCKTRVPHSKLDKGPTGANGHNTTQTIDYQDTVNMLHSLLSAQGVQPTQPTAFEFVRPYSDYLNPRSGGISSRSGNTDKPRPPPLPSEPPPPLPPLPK
Series [12] concerns the target CKD9/Cyclin H (Homo sapiens, UniProt P50750). In words: Biochemical profile against CDKs and binding partners (Table 3). As to the method: as §1
In series [13] the test system is caspase 3/7 in MDA-MB-468 cells. In words: Caspase Glo 3/7 activity assay in MDA-MB-468 cells. In kind it is cell-based. The conditions noted are these: 24 hours. As to the method: Further anti-proliferative effect of 1-3 was evaluated in the TNBC cell line MDA-MB-468 based on biomarker (CDK2) inhibition. […] The mechanistic cell cycle block is aligned with biomarker. In addition, Caspase Glo 3/7 activation was tested to confirm the sub-G1 (apoptotic) arrest in cell cycle.

Series [14] has as its system PLC/PRF/5 cells. In words: Cell viability of HCC cells by CellTiter Glo assay. The class given is cell-based. The conditions noted are these: 72 hours. On the procedure:
FIG. 5 is a graph showing cell viability of hepatocellular carcinoma (HCC) cell lines treated with I-3 for 72 hours, assessed by CellTiter Glo assay, with the control level of cells considered 100%.
I-3 was also tested for efficacy on hepatocellular carcinoma (HCC) cell lines. Cell viability was measured by CellTiter Glo assay (FIG. 5 and Table 8).

For series [15], the system named is caspase 3/7 in PLC/PRF/5 cells. In words: Caspase Glo 3/7 activity assay in PLC/PRF/5 cells. In kind it is cell-based.
Series [16] has as its target CDK5/p35 (Homo sapiens, UniProt Q00535). In words: Radioisotope-based protein kinase assay. The class given is biochemical. The conditions noted are these: Table 2. On the procedure: as §1
The activity of compound I-3 was compared to that of a panel of CDKs and their respective binding partners (Tables 2 and 3).

Where [17] appears, read: PO 5 mg/kg, cassette dosing, plasma.

Sequence of CDK4/cyclin D1 (P11802 whole entry): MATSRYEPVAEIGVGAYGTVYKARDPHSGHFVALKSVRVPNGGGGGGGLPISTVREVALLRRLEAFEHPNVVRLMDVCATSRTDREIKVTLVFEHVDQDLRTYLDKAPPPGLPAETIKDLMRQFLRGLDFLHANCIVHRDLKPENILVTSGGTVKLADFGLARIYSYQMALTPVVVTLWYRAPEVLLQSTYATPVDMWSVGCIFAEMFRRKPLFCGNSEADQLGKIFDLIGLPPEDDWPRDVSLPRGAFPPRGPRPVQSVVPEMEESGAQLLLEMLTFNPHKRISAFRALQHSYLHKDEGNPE
Sequence of CDK4/cyclin D1 (P24385 whole entry partner): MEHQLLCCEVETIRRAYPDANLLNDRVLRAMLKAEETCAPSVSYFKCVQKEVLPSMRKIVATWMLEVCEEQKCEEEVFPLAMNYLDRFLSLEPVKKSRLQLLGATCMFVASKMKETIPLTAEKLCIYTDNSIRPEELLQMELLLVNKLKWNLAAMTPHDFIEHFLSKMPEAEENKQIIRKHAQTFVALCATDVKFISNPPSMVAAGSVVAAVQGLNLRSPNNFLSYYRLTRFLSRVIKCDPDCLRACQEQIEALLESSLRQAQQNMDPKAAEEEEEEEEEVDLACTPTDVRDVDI
Sequence of CDK6/cyclin D1 (Q00534 whole entry): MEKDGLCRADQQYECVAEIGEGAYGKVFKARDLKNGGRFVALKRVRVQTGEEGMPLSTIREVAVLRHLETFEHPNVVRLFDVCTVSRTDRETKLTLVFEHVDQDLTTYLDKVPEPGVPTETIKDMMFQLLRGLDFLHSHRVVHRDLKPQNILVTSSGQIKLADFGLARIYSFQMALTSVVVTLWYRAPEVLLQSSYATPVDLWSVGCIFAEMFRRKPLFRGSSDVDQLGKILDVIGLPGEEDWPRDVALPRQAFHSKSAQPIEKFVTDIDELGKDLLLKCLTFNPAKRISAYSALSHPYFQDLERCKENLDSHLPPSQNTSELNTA
Sequence of CDK6/cyclin D1 (P24385 whole entry partner): as the sequence (P24385 whole entry partner) above
Sequence of CKD9/Cyclin H (P50750 whole entry): as the sequence (P50750 whole entry) above
Sequence of CDK5/p35 (Q00535 whole entry): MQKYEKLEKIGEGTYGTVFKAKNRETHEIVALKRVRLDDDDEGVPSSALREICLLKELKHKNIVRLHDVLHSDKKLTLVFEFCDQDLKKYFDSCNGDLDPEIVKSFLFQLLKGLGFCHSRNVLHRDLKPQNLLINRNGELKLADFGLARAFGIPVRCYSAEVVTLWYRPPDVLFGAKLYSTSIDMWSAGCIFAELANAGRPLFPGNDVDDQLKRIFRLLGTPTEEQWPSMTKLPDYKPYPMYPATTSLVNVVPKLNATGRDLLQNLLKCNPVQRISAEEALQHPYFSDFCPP
Sequence of CDK5/p35 (Q15078 whole entry partner): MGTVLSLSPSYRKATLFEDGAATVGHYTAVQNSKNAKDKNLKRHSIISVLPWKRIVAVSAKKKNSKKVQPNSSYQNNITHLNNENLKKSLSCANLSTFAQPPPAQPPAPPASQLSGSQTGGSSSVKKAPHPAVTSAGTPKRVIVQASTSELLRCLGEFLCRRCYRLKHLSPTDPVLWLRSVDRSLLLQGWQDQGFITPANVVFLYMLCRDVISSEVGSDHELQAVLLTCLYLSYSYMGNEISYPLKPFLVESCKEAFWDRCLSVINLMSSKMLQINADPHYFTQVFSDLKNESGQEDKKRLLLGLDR

Take `CCN1CCN(Cc2ccc(Nc3ncc(F)c(-c4cc(F)c5nc(C)n(C(C)C)c5c4)n3)nc2)CC1` [Abemaciclib]: in series [1] (mouse, in vivo), the Tmax worked out at 5.5 h. This compound gave an AUC(0-inf) in series [1] (mouse, in vivo, AUCinf) of 613 ng·h/mL. In addition, the Cmax in series [1] (mouse, in vivo, Cmax) came to 107 ng/mL.
`CC[C@H](Nc1nc(NCc2cnc(C)cc2C)c2ncn(C(C)C)c2n1)[C@@H](C)O` [CYC065, reference compound]: the IC50 turned out to be 578 nM in [2]; 5 nM in series [3]; 21 nM in series [4]; 380 nM in [5] (Homo sapiens); 400 nM in series [6] (Homo sapiens).
As to `Nc1nccc(-c2c[nH]c3nccc(Oc4ccccc4)c23)n1` [I-1, 4-(4-phenoxy-1H-pyrrolo[2,3-b]pyridin-3-yl)pyrimidin-2-amine], the IC50 in series [7] was 3 nM; in series [2] it was 4 nM; in [8], 3 nM; in series [3] it was 2 nM; in [4] it was 259 nM; in series [9], 138 nM.
As for `Nc1nccc(-c2c[nH]c3nccc(Oc4cccc(Cl)c4)c23)n1` [I-2, 4-(4-(3-chlorophenoxy)-1H-pyrrolo[2,3-b]pyridin-3-yl)pyrimidin-2-amine], the IC50 in [7] stood at 11 nM; in series [2], 16 nM; in series [8] it was 9 nM; in [3] it was 8 nM; in [4], 875 nM; in series [9], 819 nM.
With `Nc1nccc(-c2c[nH]c3nccc(Oc4cc(F)cc(F)c4)c23)n1` [I-4, 4-(4-(3,5-difluorophenoxy)-1H-pyrrolo[2,3-b]pyridin-3-yl)pyrimidin-2-amine], the figures for the IC50 in series [2], in series [3] and in series [4] were 7 nM, 2 nM and 462 nM, respectively.
As for `Nc1nccc(-c2c[nH]c3nccc(Oc4cccc(C(F)(F)F)c4)c23)n1` [I-5, 4-(4-(3-(trifluoromethyl)phenoxy)-1H-pyrrolo[2,3-b]pyridin-3-yl)pyrimidin-2-amine], the IC50 was found to be 27 nM in series [3], 43 nM in series [10] and 16 nM in series [11].
For `Nc1nccc(-c2c[nH]c3nccc(Oc4ccc(F)cc4)c23)n1` [I-6, 4-(4-(4-fluorophenoxy)-1H-pyrrolo[2,3-b]pyridin-3-yl)pyrimidin-2-amine], the IC50 in series [7] is 4 nM; in [8], 5 nM; in series [9], 196 nM; in [11], 3 nM.
Take `CNC(=O)c1nn(C)c2c1C(C)(C)Cc1cnc(Nc3ccc(N4CCN(C)CC4)cc3)nc1-2` [Milciclib]: the IC50 in [2] is 398 nM; in series [3] it was 363 nM. The Tmax in series [1] (mouse, in vivo) was 3.5 h. This compound also registered an AUC(0-inf) in series [1] (mouse, in vivo, AUCinf) of 2980 ng·h/mL. This compound yielded a Cmax in series [1] (mouse, in vivo, Cmax) of 537 ng/mL.
`C[C@@]1(O)CCC[C@H]1n1c(=O)c(C(F)F)cc2cnc(NC3CCN(S(C)(=O)=O)CC3)nc21` [PF-06873600, reference compound]: the IC50 amounted to 43 nM in series [12]; 65 nM in series [5]; 660 nM in series [6]; 5660 nM in series [13]; 3480 nM in series [14]; 3560 nM in series [15]. Further, in series [13], the “Caspase 3/7 activation” value is given as “no caspase 3/7 activation”. In addition, in [1] (setting [17]), the peak concentration (Cmax) worked out at 196 ng/mL. The T1/2 in series [1] (setting [17]) came to 2.1 h.
In the case of `CC(=O)c1c(C)c2cnc(Nc3ccc(N4CCNCC4)cn3)nc2n(C2CCCC2)c1=O` [Palbociclib], in [1] (mouse, plasma, oral, 5 mg/kg, in vivo PK comparison of CDK inhibitors, Table 13, read-out: AUCinf), the AUC(0-inf) amounted to 641 ng·h/mL. In addition, in [1] (mouse, plasma, oral, 5 mg/kg, in vivo PK comparison of CDK inhibitors, Table 13, read-out: Cmax), the Cmax came out at 196 ng/mL. For the same compound, the Tmax in series [1] (mouse, plasma, oral, 5 mg/kg, in vivo PK comparison of CDK inhibitors, Table 13, read-out: Tmax) came to 2.1 h.
For the compound `CN(C)C(=O)c1cc2cnc(Nc3ccc(N4CCNCC4)cn3)nc2n1C1CCCC1` [Ribociclib], the Tmax in [1] (mouse, in vivo) was 5.7 h. Moreover, the AUC(0-inf) in [1] (mouse, in vivo, AUCinf) amounted to 2780 ng·h/mL. Besides, in series [1] (mouse, in vivo, Cmax), the peak level (Cmax) was 303 ng/mL.
Compound `CNC(=O)c1cc(Oc2ccc(NC(=O)Nc3ccc(Cl)c(C(F)(F)F)c3)cc2)ccn1` [Sorafenib] had an IC50 in [14] (Homo sapiens) of 6300 nM.
Take Merioline-3: the IC50 was found to be 5 nM in series [7]; 7 nM in [2]; 3 nM in [8]; 2 nM in series [3]; 182 nM in series [4]; 130 nM in [9]. For the same compound, the IC50 was determined as 2 nM in series [11], 3 nM in [16] and 2 nM in [12]. For the same compound, the Cmax in series [1] (setting [17]) came to 178 ng/mL; in [1] (mice, IV 5 mg/kg, plasma), 5560 ng/mL; in [1] (mice, PO 5 mg/kg, plasma) it was 483 ng/mL. The AUCinf is 83,600 min*ng/mL in [1] (mice, IV 5 mg/kg, plasma) and 4340 ng·min/mL in series [1] (mice, PO 5 mg/kg, plasma). In series [1] (mice, IV 5 mg/kg, plasma), this compound showed a T1/2 of 0.124 h. For the same compound, the Tmax in [1] (mice, IV 5 mg/kg, plasma) was 0.0833 h; in series [1] (mice, PO 5 mg/kg, plasma) it was 1 h.

What is called Tmax is the time from dosing to the highest level. For orientation: Cmax means the maximum level reached in the sampled fluid or tissue. As usually defined, the IC50 is the concentration needed to halve the response being measured.
